Measurements published in article PMC8062304 (Journal of the American Chemical Society, 2021).

Columns and labels:
carboxypeptidase Y = target: T1, carboxypeptidase Y (Saccharomyces cerevisiae, UniProt P00729); format: in vitro ADME; details: after 2 h at 95 °C; CFB-produced lasso peptide from native BGC; Figure S7
T1 sequence (P00729 112-532): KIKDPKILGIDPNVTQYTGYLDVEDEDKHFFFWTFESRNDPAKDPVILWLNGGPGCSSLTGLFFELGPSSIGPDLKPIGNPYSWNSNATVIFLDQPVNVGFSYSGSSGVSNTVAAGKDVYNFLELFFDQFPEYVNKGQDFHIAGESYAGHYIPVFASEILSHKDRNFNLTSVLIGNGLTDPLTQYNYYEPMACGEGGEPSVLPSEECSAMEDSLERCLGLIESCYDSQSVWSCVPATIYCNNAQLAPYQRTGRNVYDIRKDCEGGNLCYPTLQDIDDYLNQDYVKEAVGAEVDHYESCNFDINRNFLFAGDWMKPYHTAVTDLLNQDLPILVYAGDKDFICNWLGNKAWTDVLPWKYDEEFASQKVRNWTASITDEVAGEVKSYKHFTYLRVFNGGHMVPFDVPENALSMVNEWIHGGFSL

[1] = test system: transcription/translation (production of the fluorescent protein mCherry); format: biochemical, E. coli; details: CFB-produced capistruin supplied at 10 µM; compared to a control that omitted capistruin; fluorescence reporter
[2] = cited from earlier work

burhizin
carboxypeptidase Y resistance after prolonged heating (carboxypeptidase Y): retained protease resistance

capistruin (GTPGFQTPDARVISRFGFN; Capistruin; UniProt P0DQM5 29-47, looked up)
reduction in mCherry production [1]: 66%

cellulassin
carboxypeptidase Y resistance after prolonged heating (carboxypeptidase Y): efficient carboxypeptidase Y digestion

fusilassin
carboxypeptidase Y resistance after prolonged heating (carboxypeptidase Y): efficient carboxypeptidase Y digestion | conformation after extended exposure to organic solvent [2]: adopted a branched-cyclic form
